Test results taken from US11629171B2, “Beta-hairpin peptidomimetics” (POLYPHOR AG, priority 2017, dated 2023).
Values after ≈ are worked out from the molar mass of the structure shown. Where a SMILES comes first, the peptide text is derived from it. Bridges are numbered along the chain shown (N, C = ends). Roman numbers before positions name the chains, in order. [ ]: non-standard residue; d: D form. The star is where a group is joined. Thr(ol) = C[C@@H](O)[C@H](N)CO; Tle = CC(C)(C)[C@H](N)C(=O)O; Hiv = CC(C)[C@H](O)C(=O)O; dDab = NCC[C@@H](N)C(=O)O; hSer = N[C@@H](CCO)C(=O)O; NHCH(CH2OH)2 = OCC(CO)N*; Dab = NCC[C@H](N)C(=O)O; Abu = CC[C@H](N)C(=O)O; Dap = NC[C@H](N)C(=O)O

What was measured:
Format in all cases: cell-based
[1] = test system: human red blood cells (hRBC); test: Hemolysis; conditions: red cells of human, 1 h, 200
Procedure, shortened: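 Washed fresh hRBC (20% v/v) were incubated with peptides at 200 μg/mL for 1 h at 37° C with shaking at 300 rpm. Supernatant OD540 was read after centrifugation and dilution, blank-corrected, and expressed as percent of the 2% Triton X-100 (100% lysis) control; PBS with 10% water gave 0%.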

[2] = test system: Acinetobacter baumannii 872842; conditions: 872842
Procedure, shortened: (§1)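 CLSI broth microdilution in cation-adjusted Mueller-Hinton II broth with 0.002% polysorbate 80 (final), inoculum appr. 10^6 CFU/mL, peptides in serial two-fold dilutions. MIC (μg/mL) is the lowest concentration without visible growth after 18-20 h at 35° C.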

[3] = test system: Klebsiella pneumoniae 968733; conditions: 968733
Procedure, shortened: as §1

Escherichia coli 926415 = conditions: 926415
Procedure, shortened: as §1

[4] = test system: Pseudomonas aeruginosa ATCC 27853; conditions: ATCC 27853
Procedure, shortened: as §1

[5] = test system: Escherichia coli ATCC 25922; conditions: ATCC 25922
Procedure, shortened: as §1

[6] = test system: Klebsiella pneumoniae SSI #3010; conditions: SSI #3010
Procedure, shortened: as §1

[7] = test system: Acinetobacter baumannii DSM 30008; conditions: DSM 30008
Procedure, shortened: as §1

[8] = test system: Enterobacter cloacae 848840; conditions: 848840
Procedure, shortened: as §1

SMILES	Hemolysis at 200 μg/mL [1] [%]	MIC [2] [µg/mL]	MIC [3] [µg/mL]	MIC (Escherichia coli 926415) [µg/mL]	MIC [4] [µg/mL]	MIC [5] [µg/mL]	MIC [6] [µg/mL]	MIC [7] [µg/mL]	MIC [8] [µg/mL]	Pseudomonas aeruginosa ATCC 27853 MIC [4] [µg/mL]	Escherichia coli ATCC 25922 MIC [5] [µg/mL]	Klebsiella pneumoniae SSI #3010 MIC [6] [µg/mL]	Acinetobacter baumannii DSM 30008 MIC [7] [µg/mL]
CC(C)C[C@@H]1NC(=O)[C@@H](CC(C)C)NC(=O)[C@H](CCN)NC(=O)[C@@H](NC(=O)[C@H](CN)NC(=O)[C@@H](NC(=O)[C@H](CCN)NC(=O)CC[C@@H]2NC(=O)[C@H](CCN)NC(=O)[C@H](Cc3ccc(O)cc3)NC(=O)[C@@H](NC(=O)[C@@H](O)C(C)C)CSSC[C@@H](C(=O)N[C@@H](CO)C(N)=O)NC(=O)[C@H](C(C)C)NC(=O)[C@H](CCC(=O)O)NC(=O)[C@H](Cc3c[nH]c4ccccc34)NC(=O)[C@H](CCO)NC(=O)[C@@H](CCN)NC2=O)[C@@H](C)O)CCNC(=O)[C@H]([C@@H](C)O)NC(=O)[C@H](CCN)NC(=O)[C@H](CCN)NC1=O [Ex. 157] (I: H-[Hiv]CY[Dab]E[dDab][hSer]WEVCS-NH2 / II: [Dab]T[Dap][Dab][Dab][dL]L[Dab][Dab]T; disulfide I:2-I:11; amide I:5-II:N; lactam II:4-II:C)	<1	0.5 (≈ 0.207 µM)	1 (≈ 0.414 µM)	1 (≈ 0.414 µM)	0.25 (≈ 0.104 µM)	0.0625 (≈ 0.0259 µM)	0.125 (≈ 0.0518 µM)	0.125 (≈ 0.0518 µM)	0.25 (≈ 0.104 µM)				
CC(C)C[C@@H]1NC(=O)[C@@H](CC(C)C)NC(=O)[C@H](CCN)NC(=O)[C@@H](NC(=O)[C@H](CCN)NC(=O)[C@@H](NC(=O)[C@H](CCN)NC(=O)CC[C@@H]2NC(=O)[C@H](CCN)NC(=O)[C@H](Cc3ccc(O)cc3)NC(=O)[C@@H](NC(=O)[C@@H](O)C(C)C)CSSC[C@@H](C(=O)N[C@H](CO)[C@@H](C)O)NC(=O)[C@H](C(C)(C)C)NC(=O)[C@H](CO)NC(=O)[C@H](Cc3c[nH]c4ccccc34)NC(=O)[C@H](CCO)NC(=O)[C@@H](CCCNC(=N)N)NC2=O)[C@@H](C)O)CCNC(=O)[C@H]([C@@H](C)O)NC(=O)[C@H](CCN)NC(=O)[C@H](CCN)NC1=O [Ex. 75] (I: H-[Hiv]CY[Dab]E[dR][hSer]WS[Tle]C[Thr(ol)] / II: [Dab]T[Dab][Dab][Dab][dL]L[Dab][Dab]T; disulfide I:2-I:11; amide I:5-II:N; lactam II:4-II:C)	<1	0.0625 (≈ 0.0254 µM)	0.125 (≈ 0.0509 µM)	0.125 (≈ 0.0509 µM)	0.125 (≈ 0.0509 µM)	0.0625 (≈ 0.0254 µM)	0.125 (≈ 0.0509 µM)	0.0625 (≈ 0.0254 µM)	0.125 (≈ 0.0509 µM)				
CC(C)C[C@@H]1NC(=O)[C@@H](CC(C)C)NC(=O)[C@H](CCN)NC(=O)[C@@H](NC(=O)[C@H](CCN)NC(=O)[C@@H](NC(=O)[C@H](CCN)NC(=O)CC[C@@H]2NC(=O)[C@H](CCN)NC(=O)[C@H](Cc3ccc(O)cc3)NC(=O)[C@@H](NC(=O)[C@@H](O)C(C)C)CSSC[C@@H](C(=O)NC(CO)CO)NC(=O)[C@H](C(C)(C)C)NC(=O)[C@H](CO)NC(=O)[C@H](Cc3c[nH]c4ccccc34)NC(=O)[C@H](CCO)NC(=O)[C@@H](CCN)NC2=O)[C@@H](C)O)CCNC(=O)[C@H]([C@@H](C)O)NC(=O)[C@H](CCN)NC(=O)[C@H](CCN)NC1=O [Ex. 95] (I: H-[Hiv]CY[Dab]E[dDab][hSer]WS[Tle]C-{NHCH(CH2OH)2} / II: [Dab]T[Dab][Dab][Dab][dL]L[Dab][Dab]T; disulfide I:2-I:11; amide I:5-II:N; lactam II:4-II:C)	<1	0.125 (≈ 0.0524 µM)	0.125 (≈ 0.0524 µM)	0.125 (≈ 0.0524 µM)	0.125 (≈ 0.0524 µM)	0.03125 (≈ 0.0131 µM)	0.125 (≈ 0.0524 µM)	0.0625 (≈ 0.0262 µM)	4 (≈ 1.68 µM)				
CC(=O)N[C@H](C(=O)N[C@H]1CSSC[C@@H](C(=O)N[C@@H](CO)C(N)=O)NC(=O)[C@H](C(C)C)NC(=O)[C@H](CCC(=O)O)NC(=O)[C@H](Cc2c[nH]c3ccccc23)NC(=O)[C@H](CCO)NC(=O)[C@@H](CCN)NC(=O)[C@H](CCC(=O)N[C@@H](CCN)C(=O)N[C@H](C(=O)N[C@@H](CN)C(=O)N[C@H]2CCNC(=O)[C@H]([C@@H](C)O)NC(=O)[C@H](CCN)NC(=O)[C@H](CCN)NC(=O)[C@H](CC(C)C)NC(=O)[C@@H](CC(C)C)NC(=O)[C@H](CCN)NC2=O)[C@@H](C)O)NC(=O)[C@H](CCCCN)NC(=O)[C@H](Cc2ccc(O)cc2)NC1=O)C(C)C [Ex. 158] (I: Ac-VCYKE[dDab][hSer]WEVCS-NH2 / II: [Dab]T[Dap][Dab][Dab][dL]L[Dab][Dab]T; disulfide I:2-I:11; amide I:5-II:N; lactam II:4-II:C)	<1	0.25 (≈ 0.101 µM)	1 (≈ 0.403 µM)	0.5 (≈ 0.201 µM)	0.25 (≈ 0.101 µM)	0.0625 (≈ 0.0252 µM)	0.125 (≈ 0.0503 µM)	0.0625 (≈ 0.0252 µM)	0.125 (≈ 0.0503 µM)				
CC[C@@H]1NC(=O)[C@@H](CC(C)C)NC(=O)[C@H](CCN)NC(=O)[C@@H](NC(=O)[C@H](CN)NC(=O)[C@@H](NC(=O)[C@H](CCN)NC(=O)CC[C@@H]2NC(=O)[C@H](CCN)NC(=O)[C@H](Cc3ccc(O)cc3)NC(=O)[C@@H](NC(=O)[C@@H](NC(C)=O)C(C)C)CSSC[C@@H](C(=O)N[C@@H](C)C(=O)N[C@H](CO)C(N)=O)NC(=O)[C@H]([C@@H](C)CC)NC(=O)[C@H](CO)NC(=O)[C@H](Cc3c[nH]c4ccccc34)NC(=O)[C@H](CO)NC(=O)[C@@H](CCN)NC2=O)[C@@H](C)O)CCNC(=O)[C@H]([C@@H](C)O)NC(=O)[C@H](CCN)NC(=O)[C@H](CCN)NC1=O [Ex. 369] (I: Ac-VCY[Dab]E[dDab]SWSICA[dS]-NH2 / II: [Dab]T[Dap][Dab][Dab][dL][Abu][Dab][Dab]T; disulfide I:2-I:11; amide I:5-II:N; lactam II:4-II:C)	<1	0.03125 (≈ 0.0127 µM)	0.0625 (≈ 0.0254 µM)	0.0625 (≈ 0.0254 µM)					0.03125 (≈ 0.0127 µM)	0.0625	0.01562	0.03125	0.007813
CC(C)C[C@@H]1NC(=O)[C@H](CCN)NC(=O)[C@H](CCN)NC(=O)[C@H](CC(C)C)NC(=O)[C@@H](CC(C)C)NC(=O)[C@H](CCN)NC(=O)[C@@H](NC(=O)[C@@H](CCN)NC(=O)CC[C@@H]2NC(=O)[C@H](CCN)NC(=O)[C@H](Cc3ccc(O)cc3)NC(=O)[C@@H](NC(=O)[C@@H](O)C(C)C)CSSC[C@@H](C(=O)N[C@H](CO)[C@@H](C)O)NC(=O)[C@H](C(C)(C)C)NC(=O)[C@H](CO)NC(=O)[C@H](Cc3c[nH]c4ccccc34)NC(=O)[C@H](CCO)NC(=O)[C@@H](CCN)NC2=O)CCNC1=O [Ex. 127] (I: H-[Hiv]CY[Dab]E[dDab][hSer]WS[Tle]C[Thr(ol)] / II: [dDab][Dab][Dab][dL]L[Dab][Dab]L; disulfide I:2-I:11; amide I:5-II:N; lactam II:2-II:C)	2	0.0625 (≈ 0.0283 µM)	0.5 (≈ 0.226 µM)	0.125 (≈ 0.0565 µM)	0.5 (≈ 0.226 µM)	0.0625 (≈ 0.0283 µM)	0.25 (≈ 0.113 µM)	0.0625 (≈ 0.0283 µM)	0.125 (≈ 0.0565 µM)				
CNC(=O)[C@H](CO)NC(=O)[C@@H]1CSSC[C@H](NC(=O)[C@@H](NC(C)=O)C(C)C)C(=O)N[C@@H](Cc2ccc(O)cc2)C(=O)N[C@@H](CCN)C(=O)N[C@@H](CCC(=O)N[C@@H](CCN)C(=O)N[C@H](C(=O)N[C@@H](CN)C(=O)N[C@H]2CCNC(=O)[C@H]([C@@H](C)O)NC(=O)[C@H](CCN)NC(=O)[C@H](CCN)NC(=O)[C@H](CC(C)C)NC(=O)[C@@H](CC(C)C)NC(=O)[C@H](CCN)NC2=O)[C@@H](C)O)C(=O)N[C@H](CCN)C(=O)N[C@@H](CO)C(=O)N[C@@H](Cc2c[nH]c3ccccc23)C(=O)N[C@@H](CO)C(=O)N[C@@H](C(C)(C)C)C(=O)N1 [Ex. 145] (I: Ac-VCY[Dab]E[dDab]SWS[Tle]CS-NHMe / II: [Dab]T[Dap][Dab][Dab][dL]L[Dab][Dab]T; disulfide I:2-I:11; amide I:5-II:N; lactam II:4-II:C)	2	0.03125 (≈ 0.0129 µM)	0.125 (≈ 0.0515 µM)	0.0625 (≈ 0.0258 µM)	0.125 (≈ 0.0515 µM)	0.0625 (≈ 0.0258 µM)	0.125 (≈ 0.0515 µM)	0.0625 (≈ 0.0258 µM)	0.125 (≈ 0.0515 µM)				
CC(=O)N[C@H](C(=O)N[C@H]1CSSC[C@@H](C(=O)N[C@@H](CO)C(N)=O)NC(=O)[C@H](C(C)(C)C)NC(=O)[C@H](CO)NC(=O)[C@H](Cc2c[nH]c3ccccc23)NC(=O)[C@H](CO)NC(=O)[C@@H](CCN)NC(=O)[C@H](CCC(=O)N[C@@H](CCN)C(=O)N[C@H](C(=O)N[C@@H](CN)C(=O)N[C@H]2CCNC(=O)[C@H]([C@@H](C)O)NC(=O)[C@H](CCN)NC(=O)[C@H](CCN)NC(=O)[C@H](CC(C)C)NC(=O)[C@@H](CC(C)C)NC(=O)[C@H](CCN)NC2=O)[C@@H](C)O)NC(=O)[C@H](CO)NC(=O)[C@H](Cc2ccc(O)cc2)NC1=O)C(C)C [Ex. 132] (I: Ac-VCYSE[dDab]SWS[Tle]CS-NH2 / II: [Dab]T[Dap][Dab][Dab][dL]L[Dab][Dab]T; disulfide I:2-I:11; amide I:5-II:N; lactam II:4-II:C)	2	0.0625 (≈ 0.026 µM)	0.125 (≈ 0.0521 µM)	0.0625 (≈ 0.026 µM)	0.125 (≈ 0.0521 µM)	0.03125 (≈ 0.013 µM)	0.125 (≈ 0.0521 µM)	0.03125 (≈ 0.013 µM)	0.125 (≈ 0.0521 µM)				
